Values quoted from earlier work as cited in patent US12409165B2, “Pharmaceutical composition comprising eltrombopag bis(monoethanolamine)” (SYNTHON B.V., priority 2019, dated 2025).

Columns and labels:
[1] = qualitative statement in the background, no method given
[2] = qualitative statement in the background, no method given; remark: listed apart in the source

## CC1=NN(c2ccc(C)c(C)c2)C(=O)/C1=N\Nc1cccc(-c2cccc(C(=O)O)c2)c1O.NCCO.NCCO [Eltrombopag bis(monoethanolamine), 3′-{(2Z)-2-[1-(3,4-dimethylphenyl)-3-methyl-5-oxo-1,5-dihydro-4H-pyrazol-4-ylidene]hydrazino}-2′-hydroxy-3-biphenyl-carboxylic acid bis(monoethanolamine)]
[1]
  solubility: low
[2]
  permeability: medium
